Reference: ChEMBL document CHEMBL6182845, “Synthesis, screening and validation of cysteine-reactive fragments as chikungunya virus protease inhibitors” (Bioorg Med Chem Lett, 2025)
Activity calls are given as the source filed them. The calls are words filed in the database; no cut-off is given here.

Tests used:
[1] = target: Polyprotein P1234 (Chikungunya virus (strain S27-African prototype) (CHIKV)) (UniProt Q8JUX6); experiment: Inhibition of CHIKV nsP2 protease at 1 mM by FRET assay relative to control
[2] = target: Replicase polyprotein 1ab (Severe acute respiratory syndrome coronavirus 2) (UniProt P0DTD1); experiment: Inhibition of SARS-CoV-2 PLpro at 1 mM by FRET analysis
[3] = target: Polyprotein P1234 (Sindbis virus) (UniProt P03317); experiment: Inhibition of SINV nsP2pro at 1 mM by FRET analysis
[4] = target: Polyprotein P1234 (Chikungunya virus (strain S27-African prototype) (CHIKV), UniProt Q8JUX6); experiment: Inhibition of CHIKV nsP2 protease by FRET assay
[5] = target: Polyprotein P1234 (Chikungunya virus (strain S27-African prototype) (CHIKV)) (UniProt Q8JUX6); experiment: Irreversible binding affinity to CHIKV nsP2 protease at 10 uM preincubated with compound followed by 100 fold dilution and subsequent addition of substrate by jump-dilution assay
[6] = target: Polyprotein P1234 (Chikungunya virus (strain S27-African prototype) (CHIKV)) (UniProt Q8JUX6); experiment: Reversible binding affinity to CHIKV nsP2 protease at 10 uM preincubated with compound followed by 100 fold dilution and subsequent addition of substrate by jump-dilution assay
[7] = target: Polyprotein P1234 (Chikungunya virus (strain S27-African prototype) (CHIKV)) (UniProt Q8JUX6); experiment: Binding affinity to CHIKV nsP2 protease assessed as covalent modification by mass spectrometry

Polyprotein P1234 (Chikungunya virus (strain S27-African prototype) (CHIKV)), sequence (Q8JUX6 whole entry): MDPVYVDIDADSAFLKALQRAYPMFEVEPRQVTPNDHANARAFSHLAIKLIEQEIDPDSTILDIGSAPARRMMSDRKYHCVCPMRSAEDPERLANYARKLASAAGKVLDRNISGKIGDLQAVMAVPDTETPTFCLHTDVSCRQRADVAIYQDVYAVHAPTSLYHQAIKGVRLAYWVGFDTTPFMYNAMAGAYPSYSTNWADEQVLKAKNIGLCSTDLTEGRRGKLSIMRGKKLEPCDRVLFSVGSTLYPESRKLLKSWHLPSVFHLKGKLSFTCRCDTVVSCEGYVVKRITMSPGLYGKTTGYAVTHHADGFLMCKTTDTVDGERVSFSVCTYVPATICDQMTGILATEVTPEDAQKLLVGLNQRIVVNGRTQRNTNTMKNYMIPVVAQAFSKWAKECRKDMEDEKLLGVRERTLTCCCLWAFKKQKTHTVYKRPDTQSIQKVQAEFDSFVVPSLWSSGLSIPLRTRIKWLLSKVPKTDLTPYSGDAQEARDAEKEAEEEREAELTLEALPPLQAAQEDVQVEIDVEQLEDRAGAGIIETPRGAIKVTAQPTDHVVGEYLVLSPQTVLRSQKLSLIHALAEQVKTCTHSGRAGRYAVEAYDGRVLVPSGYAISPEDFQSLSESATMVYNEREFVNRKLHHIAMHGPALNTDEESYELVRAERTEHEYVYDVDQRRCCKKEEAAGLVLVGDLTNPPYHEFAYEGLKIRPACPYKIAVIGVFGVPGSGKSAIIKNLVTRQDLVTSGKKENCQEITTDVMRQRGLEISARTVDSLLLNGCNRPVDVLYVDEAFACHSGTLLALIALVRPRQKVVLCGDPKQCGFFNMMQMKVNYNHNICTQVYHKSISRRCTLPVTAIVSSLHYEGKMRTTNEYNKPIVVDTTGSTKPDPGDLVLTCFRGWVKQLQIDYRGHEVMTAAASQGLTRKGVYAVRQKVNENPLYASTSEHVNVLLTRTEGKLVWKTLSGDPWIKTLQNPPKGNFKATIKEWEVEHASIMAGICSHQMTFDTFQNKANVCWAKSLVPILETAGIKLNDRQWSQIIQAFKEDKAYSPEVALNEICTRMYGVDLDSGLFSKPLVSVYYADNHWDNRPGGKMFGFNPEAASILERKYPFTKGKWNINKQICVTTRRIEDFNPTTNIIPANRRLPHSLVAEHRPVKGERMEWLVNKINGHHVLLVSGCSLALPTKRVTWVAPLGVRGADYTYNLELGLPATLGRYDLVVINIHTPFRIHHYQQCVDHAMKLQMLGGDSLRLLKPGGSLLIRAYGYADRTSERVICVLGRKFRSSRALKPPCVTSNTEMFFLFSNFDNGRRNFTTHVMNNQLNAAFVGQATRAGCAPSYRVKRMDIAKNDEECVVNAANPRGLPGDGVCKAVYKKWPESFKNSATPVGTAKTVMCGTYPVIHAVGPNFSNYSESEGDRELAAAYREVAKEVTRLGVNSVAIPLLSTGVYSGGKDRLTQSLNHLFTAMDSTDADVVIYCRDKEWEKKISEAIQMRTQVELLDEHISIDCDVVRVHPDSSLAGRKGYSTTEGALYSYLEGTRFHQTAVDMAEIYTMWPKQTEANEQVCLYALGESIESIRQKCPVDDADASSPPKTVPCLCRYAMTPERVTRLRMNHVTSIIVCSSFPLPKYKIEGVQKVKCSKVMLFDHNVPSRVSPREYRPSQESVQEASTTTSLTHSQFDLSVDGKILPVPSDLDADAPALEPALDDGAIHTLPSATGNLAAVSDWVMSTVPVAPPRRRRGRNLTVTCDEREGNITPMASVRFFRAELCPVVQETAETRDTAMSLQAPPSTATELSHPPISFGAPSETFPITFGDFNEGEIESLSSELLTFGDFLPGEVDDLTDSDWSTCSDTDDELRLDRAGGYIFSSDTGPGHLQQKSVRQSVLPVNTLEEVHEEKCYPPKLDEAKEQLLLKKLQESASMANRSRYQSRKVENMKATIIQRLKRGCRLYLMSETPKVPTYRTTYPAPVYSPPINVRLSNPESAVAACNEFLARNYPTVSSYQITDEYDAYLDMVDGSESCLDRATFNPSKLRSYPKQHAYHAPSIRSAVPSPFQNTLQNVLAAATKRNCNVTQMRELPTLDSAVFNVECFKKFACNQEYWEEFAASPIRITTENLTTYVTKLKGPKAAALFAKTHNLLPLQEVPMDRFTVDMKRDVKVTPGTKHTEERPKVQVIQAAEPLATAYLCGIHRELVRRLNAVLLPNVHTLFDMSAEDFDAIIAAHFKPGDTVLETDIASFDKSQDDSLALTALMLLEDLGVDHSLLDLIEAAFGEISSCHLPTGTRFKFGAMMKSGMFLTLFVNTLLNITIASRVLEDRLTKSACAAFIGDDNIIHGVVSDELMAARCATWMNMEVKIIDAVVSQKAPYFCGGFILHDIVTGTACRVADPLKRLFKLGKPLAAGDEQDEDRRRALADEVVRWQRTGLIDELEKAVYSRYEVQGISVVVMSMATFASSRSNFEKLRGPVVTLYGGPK
Polyprotein P1234, sequence (Q8JUX6 536-1333 limits assumed): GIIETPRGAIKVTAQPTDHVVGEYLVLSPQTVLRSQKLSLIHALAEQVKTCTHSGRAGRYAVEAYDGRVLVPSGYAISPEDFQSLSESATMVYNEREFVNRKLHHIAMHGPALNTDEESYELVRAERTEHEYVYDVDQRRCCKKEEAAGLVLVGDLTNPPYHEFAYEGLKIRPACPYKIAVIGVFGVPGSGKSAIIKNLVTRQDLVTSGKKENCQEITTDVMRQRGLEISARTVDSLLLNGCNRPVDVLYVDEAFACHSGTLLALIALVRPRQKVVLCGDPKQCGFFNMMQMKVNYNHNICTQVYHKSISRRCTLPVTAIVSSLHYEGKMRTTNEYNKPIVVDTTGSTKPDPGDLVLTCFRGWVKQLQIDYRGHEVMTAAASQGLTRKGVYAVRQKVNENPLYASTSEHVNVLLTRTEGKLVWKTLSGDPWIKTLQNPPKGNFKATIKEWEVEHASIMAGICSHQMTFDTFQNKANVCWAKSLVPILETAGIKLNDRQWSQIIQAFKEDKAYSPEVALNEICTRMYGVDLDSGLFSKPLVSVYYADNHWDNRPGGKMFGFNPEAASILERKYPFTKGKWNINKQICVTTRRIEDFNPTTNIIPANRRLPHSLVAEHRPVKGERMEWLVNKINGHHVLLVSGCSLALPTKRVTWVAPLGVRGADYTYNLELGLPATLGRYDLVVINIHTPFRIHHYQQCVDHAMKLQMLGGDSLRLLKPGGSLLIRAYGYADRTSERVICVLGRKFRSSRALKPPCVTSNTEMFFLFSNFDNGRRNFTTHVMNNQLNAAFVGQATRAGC

Row | Compound | inhibition [1] | other results
1 | C=CC(=O)Nc1ccc([N+](=O)[O-])cc1 | 100% | 
2 | C=CC(=O)NCc1ccc(Br)cc1F | < 40% | 
3 | C=CC(=O)NCCc1ccccc1 | < 40% | 
4 | C=CC(=O)Nc1ccc(OC)c(OC(=O)C=C)c1 | > 40% | 
5 | C=CC(=O)Nc1ccc(I)cc1 | > 40% | 
6 | C=CC(=O)NCc1ccccc1Cl |  | inhibition [2]: inactive; inhibition [3]: Active; Inhibition Is Weaker Than Chikv Nsp2Pro
7 | C=CC(=O)NCc1ccc(C(F)(F)F)cc1 | < 40% | 
8 | C=CC(=O)NCc1cccc(C(F)(F)F)c1 | > 40% | IC50 [4]: 1300 µM; Activity [5]: Active
9 | C=CC(=O)NCc1ccc(Cl)cc1F | < 40% | 
10 | CCC(=O)Nc1ccc(Br)cc1 | < 40% | Activity [6]: Active
11 | C=CC(=O)NCc1ccc(F)cc1 | < 40% | 
12 | C=CC(=O)N[C@H]1CCc2ccccc21 | < 40% | 
13 | C=CC(=O)Nc1ccc(OC)cc1 | < 40% | 
14 | C=CC(=O)NCc1ccc(C(C)(C)C)cc1 | < 40% | 
15 | C=CC(=O)NCc1ccc(Cl)cc1 | < 40% | 
16 | C=CC(=O)NCc1ccccc1 | < 40% | 
17 | C=CC(=O)Nc1ccc(OC)c(OC)c1 | < 40% | 
18 | C=CC(=O)N(C(C)C)C1CCCCC1 | < 40% | 

Row | Compound | inhibition [1] | other results
19 | C=CC(=O)NCCc1c[nH]c2ccccc12 | > 40% | 
20 | C=CC(=O)N[C@@H](C)c1ccccc1 | < 40% | 
21 | C=CC(=O)N1CCN(C(=O)OC(C)(C)C)CC1 | < 40% | 
22 | C=CC(=O)Nc1ccc(Br)cc1 | > 40% | IC50 [4]: 1300 µM; Activity [5]: Active; Activity [7]: 17%; inhibition [2]: inactive; inhibition [3]: Active; Inhibition Is Weaker Than Chikv Nsp2Pro
23 | C=CC(=O)Nc1c(CC(C)C)cccc1CC(C)C | < 40% | 
24 | C=CC(=O)NC1CCCCC1 | < 40% | 
25 | CCC(=O)NCc1cccc(C(F)(F)F)c1 | < 40% | Activity [6]: Active
26 | C=CC(=O)N[C@@H]1CCCC[C@H]1NC(=O)C=C | < 40% | 
27 | C=CC(=O)Nc1ccccc1 | < 40% | 
28 | C=CC(=O)N[C@H](C)c1ccccc1 | < 40% | 
29 | C=CC(=O)Nc1cccc(C)c1C | < 40% | 
30 | C=CC(=O)N(C)Cc1ccccc1 | < 40% | 
31 | C=CC(=O)Nc1ccc(OC)cc1[N+](=O)[O-] | > 40% | 
32 | C=CC(=O)NCc1ccc(OC)cc1 | < 40% | 
33 | C=CC(=O)NCCc1ccc(O)cc1 | < 40% | 
34 | C=CC(=O)Nc1ccc(OC)c(O)c1 | > 40% | 
35 | C=CC(=O)NCc1ccc2c(c1)OCO2 | < 40% | 
